Measurements reported in patent publication US9102977B2, “Method for analysis of cellular DNA content” (ChemoMetec A/S, priority 2010, dated 2015).

Assays:
U2OS cells [1] = settings: known/described effect; cited from earlier work
U2OS cells [2] = assay: Measurement of drug effects on cell cycle using acid lysis method (DNA content by DAPI image cytometry); assay type: cell-based, human; settings: drug treatment for 20 hours, Nucleocounter NC-3000 (FIG. 5)
Description: U2OS cells were grown in RPMI+10% FCS to approximately 75% confluency in 6-well plates (Nunclon surface, Nunc) and then treated with the following drugs for 20 hours:
After drug treatment each of the wells was washed once with 1 mL of PBS and then incubated with 0.25 ml of lysis buffer (100 mM citrate buffer (pH 2.25), 0.5% Triton X-100, 5 μg/ml DAPI) for 5 minutes at 37° C. Prior to quantitative image cytometry (Nucleocounter NC-3000), the samples were neutralized by adding 0.25 ml stabilization buffer (500 mM citrate, pH 8.3).

Row | Structure (SMILES) | known effect of the drug on the cell cycle (arrest phase) (U2OS cells [1]) | cell cycle distribution (DNA content histogram) (U2OS cells [2])
1 | COC(=O)Nc1nc2ccc(C(=O)c3cccs3)cc2[nH]1 [Nocodazole] | 1. Nocodazole (G2-M arrest): | –
2 | CC[C@@]1(O)C(=O)OCc2c1cc1n(c2=O)Cc2cc3ccccc3nc2-1 [Camptothecin] | 4. Camptothecin, CRT (S-G2 arrest): | accumulation of S-G2 cells
3 | COc1cc([C@@H]2c3cc4c(cc3[C@@H](O[C@@H]3O[C@@H]5CO[C@@H](C)O[C@H]5[C@H](O)[C@H]3O)[C@H]3COC(=O)[C@H]23)OCO4)cc(OC)c1O [Etoposide] | 5. Etoposide (S-G2 arrest): | –
4 | N[C@@H](Cn1ccc(=O)c(O)c1)C(=O)O [L-mimosine] | 2. L-mimosine (G1 arrest): | predominantly G1 peak
5 | NC(=O)NO [Hydroxyurea] | 3. Hydroxyurea, HU (S arrest): | –
